Reference: patent US8685443B2, “Sequestering subunit and related compositions and methods” (Alpharma Pharmaceuticals LLC, priority 2002, dated 2014)
Structures can show the parent of a compound that is named as a salt.

Legend:
[1] = hydrochloride salt; cited from earlier work
[2] = in comparison to a 15 mg dose of hydrocodone
opioid receptors = conditions: after oral administration; cited from earlier work
mu over delta sites = conditions: cited from earlier work

Row | Molecule | Calculated Dose (equianalgesic dose) [2] [mg] | other results
1 | O=C1CC[C@@]2(O)[C@H]3Cc4ccc(O)c5c4[C@@]2(CCN3CC2CC2)[C@H]1O5 [hydrochloride salt of naltrexone, naltrexone] |  | solubility in water [1]: about 100 mg/cc
2 | CCC(=O)C(CC(C)N(C)C)(c1ccccc1)c1ccccc1 (stereo not drawn) [Methadone] | 9.0 | 
3 | CN1CC[C@]23CCCC[C@H]2[C@H]1Cc1ccc(O)cc13 [Levorphanol] | 1.8 | 
4 | C[C@H]1[C@H]2Cc3ccc(O)cc3[C@]1(C)CCN2CC1CC1 [cyclazocine] |  | duration of effect (opioid receptors): ~24 h
5 | Meperidine | 135.0 | 
6 | COc1ccc2c3c1O[C@H]1[C@@H](O)C=C[C@H]4[C@@H](C2)N(C)CC[C@@]341 [Codeine] | 90.0 | 
7 | O=C1CC[C@@]2(O)[C@H]3Cc4ccc(O)c5c4[C@@]2(CCN3CC2CC2)[C@H]1O5 [naltrexone] |  | blocking action, mu over delta sites (mu over delta sites): strong preferential blocking action against mu over delta sites
8 | COc1ccc2c3c1OC1C(=O)CC[C@H]4[C@@H](C2)N(C)CC[C@]314 (stereo partly drawn) [Hydrocodone, 4,5-epoxy-3-methoxy-17-methylmorphinan-6-one] | 15.0 | 
9 | COc1ccc2c3c1OC1C(=O)CC[C@@]4(O)[C@@H](C2)N(C)CC[C@]314 (stereo partly drawn) [Oxycodone, 4,5-epoxy-14-hydroxy-3-methoxy-17-methylmorphinan-6-one] | 13.5 | 
